These results are taken from patent publication US7674831B2, “Heterocyclic compounds as sweetener enhancers” (Redpoint Bio Corporation, priority 2006, dated 2010).

Bounds are passed on as bounds.

Common to all, as to format: cell-based
The target in assay [1] is T1, human TRPM5 (Homo sapiens, UniProt Q9NZQ8).
T1 construct: expressed in transfected cells
T1 sequence (Q9NZQ8 1-1165): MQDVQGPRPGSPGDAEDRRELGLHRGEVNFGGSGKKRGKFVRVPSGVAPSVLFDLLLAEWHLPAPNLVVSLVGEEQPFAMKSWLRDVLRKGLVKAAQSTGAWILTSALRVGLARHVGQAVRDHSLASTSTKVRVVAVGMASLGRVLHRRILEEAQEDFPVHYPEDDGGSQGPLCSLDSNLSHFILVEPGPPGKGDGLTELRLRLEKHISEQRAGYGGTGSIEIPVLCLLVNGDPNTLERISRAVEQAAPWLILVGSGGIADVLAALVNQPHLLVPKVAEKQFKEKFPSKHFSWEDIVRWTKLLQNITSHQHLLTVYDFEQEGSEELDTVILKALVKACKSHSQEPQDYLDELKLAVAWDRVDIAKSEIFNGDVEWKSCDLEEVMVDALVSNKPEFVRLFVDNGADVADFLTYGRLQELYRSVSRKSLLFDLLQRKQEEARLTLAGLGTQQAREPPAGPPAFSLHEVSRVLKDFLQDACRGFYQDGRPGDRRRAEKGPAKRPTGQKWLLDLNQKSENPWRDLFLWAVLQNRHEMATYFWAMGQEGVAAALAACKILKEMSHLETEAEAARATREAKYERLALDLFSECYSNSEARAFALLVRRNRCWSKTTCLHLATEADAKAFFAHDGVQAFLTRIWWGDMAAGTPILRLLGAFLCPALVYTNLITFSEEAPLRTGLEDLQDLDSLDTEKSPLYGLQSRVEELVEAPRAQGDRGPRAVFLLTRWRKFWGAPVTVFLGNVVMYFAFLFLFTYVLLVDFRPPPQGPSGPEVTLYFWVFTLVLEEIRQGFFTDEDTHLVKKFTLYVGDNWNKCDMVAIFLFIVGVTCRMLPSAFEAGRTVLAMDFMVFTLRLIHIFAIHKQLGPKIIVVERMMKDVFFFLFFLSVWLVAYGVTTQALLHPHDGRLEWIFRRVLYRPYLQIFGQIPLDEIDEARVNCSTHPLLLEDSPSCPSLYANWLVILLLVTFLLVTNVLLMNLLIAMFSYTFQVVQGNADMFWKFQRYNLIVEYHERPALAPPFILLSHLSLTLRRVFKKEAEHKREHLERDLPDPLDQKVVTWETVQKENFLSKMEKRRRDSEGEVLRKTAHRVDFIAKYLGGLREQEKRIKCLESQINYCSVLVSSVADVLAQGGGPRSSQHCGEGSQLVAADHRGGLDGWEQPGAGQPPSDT
The assay can be described thus: TRPM5 membrane potential dye FLIPR assay in hTRPM5-HEK293 cells, ATP stimulated. Particulars: for inhibition at 10 µM: 10 μM compound, 3 μM ATP, read-out: TRPM5 Activity (percent inhibition; enhancement is negative inhibition). As to the method: The activity of human TRPM5 ion channel was measured in live cells on a fluorescent imaging plate reader (FLIPR). The basis of the assay (shown in FIG. 1) is the calcium-dependent activation of the ion channel which occurs via by activation of a G-protein coupled receptor (GPCR). GPCR activation by an appropriate agonist causes a transient increase in […] Ca^2+ ion concentration which in turn causes the ion channel to open, letting in Na^+ ions. This influx causes a change in the membrane potential of the cell which can be monitored as a change in the fluorescent signal from voltage-dependent (membrane potential) fluorescent dyes.
For the screening assay, the human TRPM5 gene was cloned, put into HEK293 cells, and a stable, high expression clone was used for screening. Cells were grown in standard media at 37° C. The day before screening, the cells were removed from flasks and added to 384 well clear bottom plates (8K cells in 20 μL/well). On the assay day, 20 μL of membrane potential dye (Part No. R8123, Molecular Devices Corp.) was added to the cells and dye was allowed to be taken up, i.e., load, into the cells for 1 hr at 37° C. […] The assay was started by addition of 10 μL of solution from the compound plate into the cell plate. During this process, continuous fluorescent recordings were made simultaneously for all wells. After addition of the compound solution, the tips were automatically washed and a stimulation solution of 3 μM ATP to activate TRPM5 (an agonist for an endogenous purinurgic GPCR), was added to all wells of the cell plate. The height of the response was calculated and percent inhibition or enhancement values, versus negative control wells, was calculated for the test samples. Exemplary results are shown in the upper left graph of FIG. 3.

The test system of assay [2] is GPCR-mediated calcium activation step. Put plainly: Calcium counterscreen (calcium sensitive dye, ATP stimulated). Particulars: Homo sapiens, 10 μM compound, read-out: Calcium Counterscreen (percent inhibition). As to the method: (§1) Two counterscreen assays were run on separate cell plates utilizing the same cells as described above. In the calcium counterscreen, the cells were loaded with a calcium sensitive dye (Calcium3 Dye, Part no. 8090, Molecular Devices Corp.) and stimulated by ATP to check for compounds that block the GPCR-mediated calcium activation step. Exemplary results of this assay are shown in the lower left graph of FIG. 3. In the KCl counterscreen, cells are stimulated with 10 mM KCl instead of ATP to check for compounds that inhibit the membrane potential response by virtue of being non-specific ion channel blockers or enhancers.

In assay [3] the test system is membrane potential response (non-specific ion channel blockers or enhancers). The assay can be described thus: KCl counterscreen (membrane potential response, 10 mM KCl instead of ATP). Particulars: Homo sapiens, 10 μM compound, read-out: KCl Counterscreen (percent inhibition). As to the method:
as §1

Assay [4] addresses T1, human TRPM5. The assay can be described thus: Whole-cell electrophysiological recording of TRPM5 current. Particulars: 10 μM compound. As to the method:
Standard whole-cell recordings were obtained from […] cells stably transfected with human TRPM5. Internal solution contained 135 mM CsGlutamate, 10 mM HEPES, 2 mM MgATP, 5 mM CaCl2 and 10 mM EGTA. External solution was HBSS (Gibco) buffered with 20 mM HEPES to pH 7.2. Currents were recorded with Multiclamp 700B amplifier using PClamp software; filtered at 1 kHz, sampled at 5 kHz. Holding potential was −80 mV. TRPM5 current in a single was activated by intracellular calcium dialysis (free calcium) and sampled with 200 ms ramps from −80 to 80 mV at 1 Hz. Current amplitudes were measured at −80 and 80 mV and plotted versus time. […] In essence, it appears that the compound makes the TRPM5 responsive lower or weaker Ca++ signals than is normally the case.

Assay [5] has as its system non-transfected, sham HEK cells. Put plainly: Whole-cell electrophysiological recording in sham cells.

As for `CCOC(=O)C/N=c1\sc2ccccc2n1C` [Example 1, Ethyl 2-(3-Methylbenzo[d]thiazol-2(3H)-ylideneamino)acetate], the inhibition at 10 µM at human TRPM5 [1] was -139%; in assay [2], -18%; in assay [3], 10%.
As for `COc1ccccc1OCCSc1nc2ccccc2[nH]1` [Example 2, 2-(2-(2-Methoxyphenoxy)ethylthio)-1H-benzimidazole], the inhibition at 10 µM at human TRPM5 [1] was -136%; in assay [2] it was 19%; in assay [3] it was -3%.
The matching figures for `COC(=O)c1sccc1Oc1ccc([N+](=O)[O-])cn1` [Example 3]: -113%, 11% and 17%.
`CCc1nnc2nc(-c3ccc(Cl)c([N+](=O)[O-])c3)[nH]n12` [Example 4, 6-(4-Chloro-3-nitrophenyl)-3-ethyl-5H-[1,2,4]triazolo[4,3-b][1,2,4]triazole]: the inhibition at 10 µM is -101% at human TRPM5 [1], 13% in assay [2] and -32% in assay [3].
Take `Cc1ccc(-c2cn3ncsc3n2)cc1` [Example 5, 6-p-Tolylimidazo[2,1-b][1,3,4]thiadiazole]: the inhibition at 10 µM on human TRPM5 [1] was -100%; in assay [2] it was 23%; in assay [3], 7%.
For the compound `O=C(Nc1ccccc1)N1CCCN(c2nc(-c3ccccc3)ns2)CC1` [Example 6, N-Phenyl-4-(3-phenyl-1,2,4-thiadiazol-5-yl)-1,4-diazepane-1-carboxamide], the results for the inhibition at 10 µM (on human TRPM5 [1]; in assay [2]; in assay [3]) were -98%, -69% and 16%, respectively.
Turning to `COc1cccc(OC)c1OCCSc1nc2ccccc2n1CCO` [Example 7, 2-(2-(2-(2,6-Dimethoxyphenoxy)ethylthio)-1H-benzimidazol-1-yl)ethanol], the values for the inhibition at 10 µM (at human TRPM5 [1]; in assay [2]; in assay [3]) were -95%, -15% and -4%, respectively.
On to `CCn1c(C)nc([N+](=O)[O-])c1Sc1ccc(Cl)cn1` [Example 8, 1-Ethyl-2-methyl-4-nitro-5-(5-chloropyridin-2-ylthio)imidazole], for which the inhibition at 10 µM at human TRPM5 [1] was -76%; in assay [2], -22%; in assay [3], 7%. Further, the “effect on TRPM5 activity (FIG. 3)” value on human TRPM5 [1] (1, 3, 10 and 30 μM compound) is reported as “selective enhancement”.
On to `CC1(C)C(c2ccccc2)=NC(c2ccccc2)=[N+]1[O-]` [Example 9, 2,4-Diphenyl-5,5-dimethylimidazole-1-oxide], for which the inhibition at 10 µM on human TRPM5 [1] was -73%; in assay [2], -15%; in assay [3], 17%.
Turning to `C=CCNC(=S)/N=c1\sc2ccccc2n1C` [Example 10, 1-Allyl-3-(3-methylbenzo[d]thiazol-2-(3H)-ylidene)thiourea], the values for the inhibition at 10 µM (at human TRPM5 [1]; in assay [2]; in assay [3]) were -73%, 0% and 1%, respectively. Further, the “TRPM5 current stimulation by compound” value at human TRPM5 [4] (30 μm calcium) was “further stimulation”. For the same compound, on human TRPM5 [4] (+80 mV, calcium 300 nm), the “TRPM5 current in response to compound” value is over 5 nA. In addition, the “TRPM5 current activation by compound” value at human TRPM5 [4] (absence of calcium) was “no current activation”. Besides, the “current in sham cells” value in assay [5] is “no significant current”.
On to `N=c1sccn1CC(=O)c1cccc([N+](=O)[O-])c1` [Example 11, 2-(2-Iminothiazol-3(2H)-yl)-1-(3-nitrophenyl)ethanone], for which the inhibition at 10 µM on human TRPM5 [1] is -68%; in assay [2] it was -12%; in assay [3], 21%.
In the case of `Cc1csc(-c2cn(C(C)C)c(=O)n(Cc3ccccc3)c2=O)n1` [Example 12], the inhibition at 10 µM was -62% at human TRPM5 [1], -5% in assay [2] and 3% in assay [3].
For `COc1c(Cl)cccc1-c1cn2ccccc2n1` [Example 13, 2-(3-Chloro-2-methoxyphenyl)imidazo[1,2-a]pyridine], the inhibition at 10 µM at human TRPM5 [1] is -57%; in assay [2] it was 9%; in assay [3], -10%.
As to `CCc1ccc(-c2csc(NC(=O)c3cc(OC)cc(OC)c3)n2)cc1` [Example 14, N-(4-(4-Ethylphenyl)thiazol-2-yl)-3,5-dimethoxybenzamide], the inhibition at 10 µM is -55% on human TRPM5 [1], 10% in assay [2] and -101% in assay [3].
On to `O=c1sc2ccccc2c2c1ncn2-c1ccccc1` [Example 15, 1-Phenylthiochromeno[4,3-d]imidazol-4(1H)-one], for which the inhibition at 10 µM at human TRPM5 [1] was -48%; in assay [2], -22%; in assay [3] it was -9%.
The matching figures for `CN(C)CC(=O)Nc1nc(-c2ccc(Cl)cc2)cs1` [Example 16, N-(4-(4-Chlorophenyl)thiazol-2-yl)-2-(dimethylamino)acetamide]: -23%, -25% and -9%.
Regarding `Cn1nc(C(F)(F)F)c(C(=O)Nc2ccc(C(F)(F)F)cc2)c1Cl` [Example 17, 5-Chloro-1-methyl-3-(trifluoromethyl)-N-(4-(trifluoromethyl)phenyl)-1H-pyrazole-4-carboxamide], the figures for the inhibition at 10 µM (at human TRPM5 [1]; in assay [2]; in assay [3]) were -16%, 4% and -25%, respectively.
